From patent US7538101B2, “1,1-dioxo-thiomorpholinyl indolyl methanone derivatives” (Hoffmann-La Roche Inc., priority 2005, dated 2009)

Biological target: T1, histamine 3 receptor (H3R) (Homo sapiens, UniProt Q9Y5N1)
T1 construct: expressed in transfected cells; host or cells: CHO cells (HR3-CHO cell line), membrane preparation
Assay: Binding assay with 3H-(R)α-methylhistamine (competition binding, membranes of the human HR3-CHO cell line)
Conditions: membrane of human HR3-CHO cell line; 3H(R)α-Methylhistamine 1 nM; Ki calculated from IC50 by Cheng-Prusoff equation
Protocol: Binding Assay with ^3H—(R)α-methylhistamine
Saturation binding experiments were performed using HR3-CHO membranes prepared as described in Takahashi, K, Tokita, S., Kotani, H. (2003) J. Pharmacol. Exp. Therapeutics 307, 213-218.
An appropriate amount of membrane (60 to 80 μg protein/well) was incubated with increasing concentrations of ^3H(R)α-Methylhistamine di-hydrochloride (0.10 to 10 nM). Non specific binding was determined using a 200 fold excess of cold (R)α-Methylhistamine dihydrobromide (500 nM final concentration). The incubation was carried out at room temperature (in deep-well plates shaking for three hours). The final volume in each well was 250 μl. The incubation was followed by rapid filtration on GF/B filters (pre-soaked with 100 μl of 0.5% PEI in Tris 50 mM shaking at 200 rpm for two hours). […] After harvesting, the plates were dried at 55° C. for 60 min, then we added scintillation fluid (Microscint 40, 40 microl in each well) and the amount of radioactivity on the filter was determined in Packard top-counter after shaking the plates for two hours at 200 rpm at room temperature. […]
All compounds were tested at a single concentration in duplicates. […] Ki's were calculated from IC50 based on Cheng-Prusoff equation (Cheng, Y, Prusoff, W H (1973) Biochem Pharmacol 22, 3099-3108).

T1 sequence (Q9Y5N1 whole entry): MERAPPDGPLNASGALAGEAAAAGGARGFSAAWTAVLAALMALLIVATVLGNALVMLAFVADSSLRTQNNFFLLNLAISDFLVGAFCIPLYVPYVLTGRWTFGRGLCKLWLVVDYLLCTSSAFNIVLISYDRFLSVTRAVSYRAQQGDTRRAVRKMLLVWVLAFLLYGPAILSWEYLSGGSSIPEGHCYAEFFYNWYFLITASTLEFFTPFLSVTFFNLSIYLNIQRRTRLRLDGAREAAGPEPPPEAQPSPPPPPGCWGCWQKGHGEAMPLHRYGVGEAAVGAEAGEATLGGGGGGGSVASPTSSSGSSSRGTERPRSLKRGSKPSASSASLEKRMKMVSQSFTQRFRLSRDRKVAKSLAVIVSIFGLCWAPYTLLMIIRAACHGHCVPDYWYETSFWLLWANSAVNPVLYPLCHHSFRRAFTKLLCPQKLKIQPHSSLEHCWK

Row | Ki | SMILES
1 | 3 nM | CC(C)N1CCC(Oc2ccc3c(c2)cc(C(=O)N2CCS(=O)(=O)CC2)n3CC(F)(F)F)CC1 [Example 1, (1,1-Dioxo-thiomorpholin-4-yl)-[5-(1-isopropyl-piperidin-4-yloxy)-1-(2,2,2-trifluoro-ethyl)-1H-indol-2-yl]-methanone]
2 | 49 nM | CC(C)N1CC[C@H](Oc2ccc3[nH]c(C(=O)N4CCS(=O)(=O)CC4)cc3c2)C1 [Example 4, (1,1-Dioxo-thiomorpholin-4-yl)-[5-(1-isopropyl-pyrrolidin-3S-yloxy)-1H-indol-2-yl]-methanone]
